Key:
muscle mass of mice = test: Muscle collection and weighing after oral gavage of cFP; format: in vivo, mouse; conditions: male C57BL/6J mice, oral gavage every 24 hours, compared to the control group, FIG. 3
Protocol: According to an embodiment of the present invention, the increase in muscle weight and bone mass by oral administration of cyclo-L-phenylalanyl-L-proline (cFP) was measured. Muscle weight was measured by separating the muscles of the mouse according to anatomical muscle classification. In addition, trabecular bone analysis on the femur of the mouse was performed using high-resolution micro-CT (SMX-90CT system). Based on the growth plate of the femur, the lower part of the 1 mm was the starting point of the analysis, and the analysis was conducted from the starting point to 1.5 mm below the bone. Each indicator means as follows. bone volume/total bone volume (BV/TV, %), bone surface/trabecular bone volume (BS/BV, 1/mm), trabecular thickness (Tb. Th, mm), trabecular number (Tb.N, 1/mm), trabecular separation (Tb. Sp, mm).
Animal studies were conducted in accordance with the guidelines for animal research. All experimental procedures were approved by the Animal Care and Use Committee of Seoul National University Animal Hospital. Male C57BL/6J mice at 4 or 6 weeks of age were purchased from Orient Bio Inc. (Seongnam, Korea) and housed in a specific pathogen-free (SPF) animal facility with controlled temperature (22° C.), humidity (55%), and a 12-hour light-dark cycle. All animals were provided with a free feeding and drinking system. […]

[1] = system: trabecular bone of mouse femur; test: Micro-CT analysis of trabecular bone of femur after free drinking of cFP; format: in vivo; conditions: cFP in drinking water (free drinking), FIG. 4
myoblasts = test: Differentiation of myoblasts and LADD staining (muscle fiber formation experiment); format: cell-based; conditions: mouse myoblasts, LADD staining, compared to vehicle, FIG. 1
From the text: Muscle growth is due to the formation of muscle fibers according to the binding between individual myoblasts. Therefore, the improvement of muscle growth can be estimated through the degree of muscle fiber formation in the environment that induced the binding of myoblasts. Accordingly, myoblasts were isolated from the muscle tissue of a subject and cultured, and whether muscle fibers were formed using the isolated myoblasts was observed.
The formation of muscle fibers can be evaluated by measuring the number of myoblasts that form muscle fibers and the thickness of the formed muscle fibers. To this end, a high-magnification optical microscope was used to identify the nucleus in the muscle fiber through muscle fiber staining. The thickness of the muscle fiber was also measured.
The muscle tissue was minced with a scalpel for 5 minutes. The minced muscle solution was incubated at 37° C. for 60 minutes and then centrifuged at 1500 rpm for 5 minutes. The obtained cells were suspended in Ham's F-10 medium containing 20% heat-inactivated horse serum and 50 units/ml of penicillin in the presence of basic FGF (2.5 ng/ml), and then plated on a cell culture dish for 1 hour without gelatin coating. After 1 hour, the suspended cells were transferred to a secondary cell culture dish without gelatin coating and cultured for 1 hour. […]

O=C1NC(Cc2ccccc2)C(=O)N2CCCC12 [cFP, cyclo-L-phenylalanyl-L-proline]
muscle mass of the mice (muscle mass of mice): increased | BV/TV (bone volume/total bone volume) [1]: significantly high | Tb. N (trabecular number) [1]: significantly high | Tb. Th (trabecular thickness) [1]: significantly high | fusion of myoblasts (muscle fiber formation; diameter of myotube and number of nuclei of myotube) (myoblasts): promoted the fusion of myoblasts

— US20240424051A1, “COMPOSITION FOR TREATING […] OS[…] MECHANISM PROMOTING FORMATION OF MUSCLE FIBERS OR INHIBITING OSTEOCLASTOGENESIS, […]-L-PHENYLALANYL-L-PROLINE DIPEPTIDES” (CELLBION CO., LTD, priority 2021, published 2024)
